What was measured:
hindquarter blood flow = test: Vasodilatation in vivo, perfused hindquarter blood flow; conditions: Rattus norvegicus, iv; dose producing a 50% increase in hindquarter blood flow; anaesthetised male Wistar rats; bolus i.v.; read-out: EDHQ₅₀
Description: Male Wistar rats (300 g) were anaesthetised with a sodium 5-ethyl-5-(1-methylpropyl)-2-thiobarbiturate/sodium pentobarbitone mixture i.p. (62.5 and 22.5 mg/kg respectively). The trachea was cannulated and the rats breathed spontaneously air enriched with O₂ (5 ml/min). Blood pressure was recorded from a carotid artery and a jugular vein was cannulated for the administration of compounds. The temperature of the animal was maintained at 37°C by the use of an electric blanket. […] The perfusion circuit was primed with 5% bovine serum albumin dissolved in 0.9% sodium chloride solution, pH adjusted to 7.4. Initially the pump rate was set between 10 and 15 ml/min to match the hind quarter perfusion pressure to that of the systemic circulation. Once set, the pressure remained unaltered for the rest of the experiment. A change in the speed of the pump (equivalent to hindquarter blood flow) was used to assess the changes in hindquarter vascular resistance.
All compounds were administered as a bolus i.v. and from the dose response curves the dose required to produce a 50% increase in hindquarter blood flow (EDHQ₅₀) was determined in µmoles/kg.

[1] = test system: histamine bronchoconstriction; test: Bronchodilatation in vivo, histamine-induced bronchoconstriction (airway resistance, Konzett-Rossler); parameters: species or system guinea-pigs of the Dunkin Hartley strain; conditions: Cavia porcellus, iv; dose reducing histamine bronchoconstriction by 50%; anaesthetised male guinea-pigs; i.v. bolus one minute before histamine challenge; read-out: BD₅₀
Description: A. Male guinea-pigs of the Dunkin Hartley strain (500 - 600 g) were anaesthetised with Sagatal (pentobarbital sodium) (60 mg/kg i.p.). Airway resistance was measured using a modification of the classical Konzett-Rossler technique (J. Pharm. Methods, 13, 309-315, 1985). A dose of histamine which gave approximately 150% increase in airway resistance was selected for i.v. administration. Bolus doses of the compound under test were administered (i.v.) one minute before the histamine challenge and the subsequent peak inhibition of bronchoconstriction recorded.
The dose of compound required to reduce the histamine bronchoconstriction by 50% is given as the BD₅₀.

[2] = test system: U46619-induced bronchoconstriction; test: Bronchodilatation in vivo, U46619-induced bronchoconstriction (airway resistance, Konzett-Rossler); parameters: species or system guinea-pigs of the Dunkin Hartley strain; conditions: Cavia porcellus, iv; dose reducing U46619-induced bronchoconstriction by 50%; anaesthetised male guinea-pigs; i.v. bolus; U46619 infused i.v. 2.5 nmol/min; read-out: BD₅₀
Description: B. Male guinea-pigs of the Dunkin Hartley strain (500 - 600g) were anaesthetised with Sagatal (pentobarbital sodium) (60 mg/kg). Airway resistance was measured using a modification of the classical Konzett-Rossler technique (J. Pharm. Methods, 13, 309-315, 1985). U46619 (9,11-methanoepoxy-PGH₂) was infused i.v. at a rate of 2.5 nmol/min, this produced a steady state of bronchoconstriction (approximately 120% increase from basal airway resistance). The compound under test was administered by i.v. bolus injection, and the subsequent peak inhibition of bronchoconstriction recorded.
The dose of compound required to reduce the U46619-induced bronchoconstriction by 50% is given as the BD₅₀.

Row | SMILES | ED50 (hindquarter blood flow) | ED50 [1] | ED50 [2]
1 | CCCOc1ccccc1-c1ncc(C(N)=O)c(=O)[nH]1 [y, 1,6-dihydro-6-oxo-2-(2-propoxyphenyl)pyrimidine-5-carboxamide, reference compound] | 23 µmol/kg | 5.6 µmol/kg | 
2 | CCCOc1ccccc1-c1ncc(N)c(=O)[nH]1 [Ex 3, 5-Amino-2-(2-propoxyphenyl)pyrimidin-4(3H)-one] | 19 µmol/kg | 8.34 µmol/kg | 
3 | CCCOc1ccccc1-c1nccc(=O)[nH]1 [Ex 5, 2-(2-Propoxyphenyl)pyrimidin-4(3H)-one] | 22 µmol/kg |  | 3.2 µmol/kg
4 | CCCOc1ccccc1-c1ncc(NC(C)=O)c(=O)[nH]1 [Ex 4, 5-Acetamido-2-(2-propoxyphenyl)pyrimidin-4(3H)-one] | 15.8 µmol/kg | 8.4 µmol/kg | 3.8 µmol/kg

Source: patent publication EP0400799A1, “Phenylpyrimidone derivatives” (SMITH KLINE & FRENCH LABORATORIES LIMITED, priority 1989, dated 1990)
